Experimental data published in patent publication US20250257086A1, “EGFR DEGRADATION AGENT” (Beijing Tide Pharmaceutical Co., Ltd., priority 2022, published 2025).

Target: Ba/F3 (EGFR^L858R/T790M/C797S) cells (Homo sapiens, UniProt P00533, T790M/C797S/L858R, cells depend on it)
Assay: Antiproliferative activity on Ba/F3 (EGFR L858R/T790M/C797S) cells (CTG)
Format: cell-based
Conditions: 72h incubation, CTG luminescence, read-out: IC50 (nM), antiproliferative activity
Experimental: 30 nL of the compound dilution was added to a 384-well plate by Echo (Labcyte, Echo550).
The percent inhibition rate (% inhibition) was calculated by the following formula
[formula] • LUMcmpd: Luminescence value of assay compound. • LUMpositive: Average LUM value of positive drug with a concentration of 10 μM. • LUMvehicle: Average LUM value of negative control group without drug treatment.
The nonlinear regression curve (dose response-variable slope) between the value of inhibition rate (%) and the logarithm of compound concentration was fitted with graphpad prism 8.0, the effect dose curve of compound was drawn, and the IC50 value was calculated.
Y=Bottom+(Top−Bottom)/(1+10^((Log IC50−X)*HillSlope)) • X-axis: logarithm of compound concentration; Y axis: inhibition rate (% inhibition).

Ba/F3 (EGFR^L858R/T790M/C797S) cells, sequence (P00533 whole entry T790M/C797S/L858R): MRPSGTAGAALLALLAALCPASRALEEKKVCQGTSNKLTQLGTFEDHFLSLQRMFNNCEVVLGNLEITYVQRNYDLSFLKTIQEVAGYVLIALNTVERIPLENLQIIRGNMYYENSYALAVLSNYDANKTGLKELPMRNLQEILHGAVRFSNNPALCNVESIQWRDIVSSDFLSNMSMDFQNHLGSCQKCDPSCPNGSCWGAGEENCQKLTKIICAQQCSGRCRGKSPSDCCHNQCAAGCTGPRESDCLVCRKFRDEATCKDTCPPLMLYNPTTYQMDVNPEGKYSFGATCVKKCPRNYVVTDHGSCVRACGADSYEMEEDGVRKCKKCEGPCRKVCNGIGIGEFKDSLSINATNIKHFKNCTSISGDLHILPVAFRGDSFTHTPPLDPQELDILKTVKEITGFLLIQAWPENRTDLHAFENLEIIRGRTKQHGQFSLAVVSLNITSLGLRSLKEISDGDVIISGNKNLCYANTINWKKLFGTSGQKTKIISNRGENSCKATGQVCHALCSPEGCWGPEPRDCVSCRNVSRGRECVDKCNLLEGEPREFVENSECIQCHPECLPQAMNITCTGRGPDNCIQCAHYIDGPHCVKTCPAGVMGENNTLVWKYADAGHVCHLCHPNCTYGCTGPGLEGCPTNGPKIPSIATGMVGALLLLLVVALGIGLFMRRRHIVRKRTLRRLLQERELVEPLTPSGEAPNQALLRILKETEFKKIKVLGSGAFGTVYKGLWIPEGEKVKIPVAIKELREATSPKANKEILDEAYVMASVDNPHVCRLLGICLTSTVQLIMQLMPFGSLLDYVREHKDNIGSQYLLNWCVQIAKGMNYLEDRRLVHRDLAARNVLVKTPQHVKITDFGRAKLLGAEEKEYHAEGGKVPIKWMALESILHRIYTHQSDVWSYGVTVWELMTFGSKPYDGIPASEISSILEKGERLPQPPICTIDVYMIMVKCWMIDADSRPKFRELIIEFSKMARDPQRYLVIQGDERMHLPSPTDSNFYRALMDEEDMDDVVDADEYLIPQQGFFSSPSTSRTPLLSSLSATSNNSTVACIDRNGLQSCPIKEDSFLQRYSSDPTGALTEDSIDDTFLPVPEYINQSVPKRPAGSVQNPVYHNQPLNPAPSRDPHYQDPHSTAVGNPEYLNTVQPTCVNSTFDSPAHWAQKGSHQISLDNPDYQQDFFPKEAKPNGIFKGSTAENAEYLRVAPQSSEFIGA

GI50 [nM]	SMILES
460	C=C(Cl)C(=O)Nc1cc(Nc2ncc(Cl)c(Nc3ccccc3P(C)(C)=O)n2)c(OC)cc1N1CCC(N2CCN(CCCC#Cc3cccc4c3CN(C3CCC(=O)NC3=O)C4=O)CC2)CC1 (stereo not shown) [Compound D597, 2-chloro-N-(5-((5-chloro-4-((2-(dimethylphosphoryl)phenyl)amino)pyrimidin-2-yl)amino)-2-(4-(4-(5-(2-(2,6-dioxopiperidin-3-yl)-1-oxoisoindolin-4-yl)pent-4-yn-1-yl)piperazin-1-yl)piperidin-1-yl)-4-methoxyphenyl)acrylamide]
56.5	COc1cc(N2CCC(N3CCN(CCCC#Cc4cccc5c4CN(C4CCC(=O)NC4=O)C5=O)CC3)CC2)c(NC(=O)C=C(C)C)cc1Nc1ncc(Cl)c(Nc2ccccc2P(C)(C)=O)n1 (stereo not shown) [Compound D633, N-(5-((5-chloro-4-((2-(dimethylphosphoryl)phenyl)amino)pyrimidin-2-yl)amino)-2-(4-(4-(5-(2-(2,6-dioxopiperidin-3-yl)-1-oxoisoindolin-4-yl)pent-4-yn-1-yl)piperazin-1-yl)piperidin-1-yl)-4-methoxyphenyl)-3-methylbut-2-enamide]
3740	C=CC(=O)Nc1cc(Nc2ncc(Br)c(Nc3ccccc3P(C)(C)=O)n2)c(OC)cc1N1CCC(N2CCN(C)CC2)CC1 [Comparative compound L495, reference compound]
31.9	C=C(F)C(=O)Nc1cc(Nc2ncc(Br)c(Nc3ccc4nccnc4c3N(C)S(C)(=O)=O)n2)c(OC)cc1N1CCC(N2CCN(CCCC#Cc3cccc4c3CN(C3CCC(=O)NC3=O)C4=O)CC2)CC1 (stereo not shown) [Compound D934]
22.3	C=CC(=O)Nc1cc(Nc2ncc(Cl)c(Nc3ccc4c(c3P(C)(C)=O)OCCO4)n2)c(OC)cc1N1CCC(N2CCN(CCCC#Cc3cccc4c3CN(C3CCC(=O)NC3=O)C4=O)CC2)CC1 (stereo not shown) [Compound D683]
31.7	COc1cc(N2CCC(N3CCN(CCCC#Cc4cccc5c4CN(C4CCC(=O)NC4=O)C5=O)CC3)CC2)c(NC(=O)/C=C/C(F)(F)F)cc1Nc1ncc(Cl)c(Nc2ccccc2P(C)(C)=O)n1 (stereo not shown) [Compound D596, N-(5-((5-chloro-4-((2-(dimethylphosphoryl)phenyl)amino)pyrimidin-2-yl)amino)-2-(4-(4-(5-(2-(2,6-dioxopiperidin-3-yl)-1-oxoisoindolin-4-yl)pent-4-yn-1-yl)piperazin-1-yl)piperidin-1-yl)-4-methoxyphenyl)-4,4,4-trifluorobut-2-enamide]
68.7	C=CC(=O)Nc1cc(Nc2ncc(Cl)c(Nc3ccccc3P(C)(C)=O)n2)c(OC)cc1N1CCC(N2CCN(CCCC#Cc3cccc4c3CN(C3CCC(=O)NC3=O)C4=O)CC2)CC1 (stereo not shown) [Compound D481, N-(5-((5-chloro-4-((2-(dimethylphosphoryl)phenyl)amino)pyrimidin-2-yl)amino)-2-(4-(4-(5-(2-(2,6-dioxopiperidin-3-yl)-1-oxoisoindolin-4-yl)pent-4-yn-1-yl)piperazin-1-yl)piperidin-1-yl)-4-methoxyphenyl)acrylamide]
16.9	CC#CC(=O)Nc1cc(Nc2ncc(Br)c(Nc3ccccc3P(C)(C)=O)n2)c(OCC(F)(F)F)cc1N1CCC(N2CCN(CCCC#Cc3cccc4c3CN(C3CCC(=O)NC3=O)C4=O)CC2)CC1 (stereo not shown) [Compound D845, N-(5-((5-bromo-4-((2-(dimethylphosphoryl)phenyl)amino)pyrimidin-2-yl)amino)-2-(4-(4-(5-(2-(2,6-dioxopiperidin-3-yl)-1-oxoisoindolin-4-yl)pent-4-yn-1-yl)piperazin-1-yl)piperidin-1-yl)-4-(2,2,2-trifluoroethoxy)phenyl)but-2-ynamide]
44.4	CC#CC(=O)Nc1cc(Nc2ncc(Br)c(Nc3ccccc3P(C)(C)=O)n2)c(OC)cc1N1CCC(N2CCN(CCCC#Cc3cccc4c3CN(C3CCC(=O)NC3=O)C4=O)CC2)CC1 (stereo not shown) [Compound D604, N-(5-((5-bromo-4-((2-(dimethylphosphoryl)phenyl)amino)pyrimidin-2-yl)amino)-2-(4-(4-(5-(2-(2,6-dioxopiperidin-3-yl)-1-oxoisoindolin-4-yl)pent-4-yn-1-yl)piperazin-1-yl)piperidin-1-yl)-4-methoxyphenyl)but-2-ynamide]
2600	COc1cc(N2CCC(N3CCN(CCCC#Cc4cccc5c4CN(C4CCC(=O)NC4=O)C5=O)CC3)CC2)c(NC(=O)/C=C/c2c[nH]cn2)cc1Nc1ncc(Cl)c(Nc2ccccc2P(C)(C)=O)n1 (stereo not shown) [Compound D581, N-(5-((5-chloro-4-((2-(dimethylphosphoryl)phenyl)amino)pyrimidin-2-yl)amino)-2-(4-(4-(5-(2-(2,6-dioxopiperidin-3-yl)-1-oxoisoindolin-4-yl)pent-4-yn-1-yl)piperazin-1-yl)piperidin-1-yl)-4-methoxyphenyl)-3-(1H-imidazol-4-yl)acrylamide]
36.7	COc1cc(N2CCC(N3CCN(CCCC#Cc4cccc5c4CN(C4CCC(=O)NC4=O)C5=O)CC3)CC2)c(C)cc1Nc1ncc(Br)c(Nc2ccc3nccnc3c2N(C)S(C)(=O)=O)n1 (stereo not shown) [Compound D932]
20.6	COc1cc(N2CCC(N3CCN(CCCC#Cc4cccc5c4CN(C4CCC(=O)NC4=O)C5=O)CC3)CC2)c(NC(=O)/C=C/C(F)(F)F)cc1Nc1ncc(Cl)c(Nc2ccc3nccnc3c2P(C)(C)=O)n1 (stereo not shown) [Compound D673, (E)-N-(5-((5-chloro-4-((5-(dimethylphosphoryl)quinoxalin-6-yl)amino)pyrimidin-2-yl)amino)-2-(4-(4-(5-(2-(2,6-dioxopiperidin-3-yl)-1-oxoisoindolin-4-yl)pent-4-yn-1-yl)piperazin-1-yl)piperidin-1-yl)-4-methoxyphenyl)-4,4,4-trifluorobut-2-enamide]
3050	CC#CC(=O)Nc1cc(Nc2ncc(Cl)c(Nc3ccccc3P(C)(C)=O)n2)c(OC)cc1N1CCC(N2CCN(C)CC2)CC1 [Comparative compound L521, reference compound]
258	COc1cc(N2CCC(N3CCN(CCCC#Cc4ccc5c(c4)CN(C4CCC(=O)NC4=O)C5=O)CC3)CC2)c(NC(=O)/C=C/C(F)(F)F)cc1Nc1ncc(Cl)c(Nc2ccccc2P(C)(C)=O)n1 (stereo not shown) [Compound D622, N-(5-((5-chloro-4-((2-(dimethylphosphoryl)phenyl)amino)pyrimidin-2-yl)amino)-2-(4-(4-(5-(2-(2,6-dioxopiperidin-3-yl)-1-oxoisoindolin-5-yl)pent-4-yn-1-yl)piperazin-1-yl)piperidin-1-yl)-4-methoxyphenyl)-4,4,4-trifluorobut-2-enamide]
22.5	CC#CC(=O)Nc1cc(Nc2ncc(Cl)c(Nc3ccc4c(c3P(C)(C)=O)OCCO4)n2)c(OC)cc1N1CCC(N2CCN(CCCC#Cc3cccc4c3CN(C3CCC(=O)NC3=O)C4=O)CC2)CC1 (stereo not shown) [Compound D685]
41.4	C=C(C)C(=O)Nc1cc(Nc2ncc(Cl)c(Nc3ccccc3P(C)(C)=O)n2)c(OC)cc1N1CCC(N2CCN(CCCC#Cc3cccc4c3CN(C3CCC(=O)NC3=O)C4=O)CC2)CC1 (stereo not shown) [Compound D579, N-(5-((5-chloro-4-((2-(dimethylphosphoryl)phenyl)amino)pyrimidin-2-yl)amino)-2-(4-(4-(5-(2-(2,6-dioxopiperidin-3-yl)-1-oxoisoindolin-4-yl)pent-4-yn-1-yl)piperazin-1-yl)piperidin-1-yl)-4-methoxyphenyl)methacrylamide]
